Test results as given in patent US20260015357A1, “MODULATORS OF NLRP3 INFLAMMASOME AND RELATED PRODUCTS AND METHODS” (Neumora Therapeutics, Inc., priority 2022, published 2026).

Key:
NLRP3 inflammasome = molecular target: T1, NLRP3 inflammasome (Homo sapiens, UniProt Q96P20); test: NLRP3 inflammasome activation in LPS-primed, nigericin-activated THP1 macrophages, IL-1β AlphaLISA; type: cell-based; conditions: PMA-differentiated, 1 hr compound, Nigericin 6.7 uM 3 hrs, IL-1β in supernatant
T1 construct: host or cells: THP1 human acute monocytic leukemia cells, PMA-differentiated, LPS-primed
T1 sequence (Q96P20 whole entry): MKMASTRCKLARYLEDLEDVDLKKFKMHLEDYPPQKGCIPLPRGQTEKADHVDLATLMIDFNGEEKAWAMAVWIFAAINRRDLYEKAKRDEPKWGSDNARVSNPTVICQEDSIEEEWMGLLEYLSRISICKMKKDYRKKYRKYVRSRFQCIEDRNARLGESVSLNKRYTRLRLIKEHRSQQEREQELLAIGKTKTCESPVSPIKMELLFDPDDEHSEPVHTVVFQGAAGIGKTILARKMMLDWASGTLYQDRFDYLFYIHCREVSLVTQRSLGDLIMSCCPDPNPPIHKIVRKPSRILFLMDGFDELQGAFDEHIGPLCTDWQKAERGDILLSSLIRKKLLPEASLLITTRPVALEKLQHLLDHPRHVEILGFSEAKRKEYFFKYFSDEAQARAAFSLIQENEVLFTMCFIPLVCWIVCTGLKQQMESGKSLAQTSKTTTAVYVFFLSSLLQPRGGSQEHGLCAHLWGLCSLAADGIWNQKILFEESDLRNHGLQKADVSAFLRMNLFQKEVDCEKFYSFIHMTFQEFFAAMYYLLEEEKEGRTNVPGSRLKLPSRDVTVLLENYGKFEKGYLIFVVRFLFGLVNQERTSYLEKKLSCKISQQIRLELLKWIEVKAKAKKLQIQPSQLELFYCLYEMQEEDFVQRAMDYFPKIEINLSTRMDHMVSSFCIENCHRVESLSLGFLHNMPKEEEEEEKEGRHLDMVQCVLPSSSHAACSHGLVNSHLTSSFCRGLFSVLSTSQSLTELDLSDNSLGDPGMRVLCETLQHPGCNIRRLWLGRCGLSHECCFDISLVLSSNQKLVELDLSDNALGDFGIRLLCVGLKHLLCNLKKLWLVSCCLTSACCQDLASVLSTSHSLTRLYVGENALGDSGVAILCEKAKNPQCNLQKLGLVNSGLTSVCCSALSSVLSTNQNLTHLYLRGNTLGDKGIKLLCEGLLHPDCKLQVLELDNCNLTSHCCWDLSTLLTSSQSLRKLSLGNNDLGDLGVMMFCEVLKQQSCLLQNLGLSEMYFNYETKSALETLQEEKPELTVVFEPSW
Experimental: (§1) NLRP3 Inflammasome Activation and Cell Viability Assessment in THP1 Macrophages
(§2) THP1—Human acute monocytic leukemia cells were cultured (ATCC, cat #TIB-202) in Gibco RPMI-1640 medium (ThermoFisher cat #72400054) supplemented with 10% Heat Inactivated FBS at density between 3-8×10^5 viable cells/mi. The cells were then subcultured when the cell concentration reached 8×10^5 cells/mL (every 2-3 days).
(§3) The parameter wells were filled with 50 ul PBS and incubated at 37° C., 5% CO2 for 48 hrs.
(§4) After 48 hrs incubation, the PMA containing media was removed, and changed for 40 ul/well of fresh DMEM, 10% FBS, 1× GlutaMax and incubated at 37° C., 5% CO2 for 24 hrs.
(§5) The following day the cells were primed with LPS (E. coli) (Sigma, cat #L3129) […] in DMEM, 10% FBS, 1× GlutaMax for 3 hrs at 37° C., 5% CO2.
(§6) Following the LPS priming step, the cells were treated with compounds at 10 uM top final concentration, 1:4 dilution, 8 times: (10 uM, 2.5 uM, 0.625 uM, 0.156 uM, 0.039 uM, 0.0097 uM, 0.0024 uM, 0.0006 uM). DMSO was used as a vehicle control, and MCC950 (InvivoGen, cat #inh-mcc) was used at 1 uM as a positive control, and incubated for 1 hrs at 37° C., 5% CO2.
(§7) Following the 1 hr compound incubation, the NLRP3 inflammasome activation step was conducted by treating cells with Nigericin (InvivoGen, cat #tlrl-nig) at 6.7 uM final concentration for 3 hrs at 37° C., 5% CO2.
(§8) Thereafter, 30 ul samples of cells' supernatants were collected for cytokine analysis which was conducted on Hu IL-1β AlphaLISA (Perkin Elmer, cat #AL220C) and Hu IL-6 AlphaLISA (Perkin Elmer, cat #AL220C). The cells' viability was assessed by performing CellTiter-Glo Luminescent Assay (Promega, cat #G7572) according to the manufacturer's protocol.

IL-6 = IL-6 in supernatants of LPS-primed, nigericin-treated THP1 macrophages, Hu IL-6 AlphaLISA; type: cell-based; conditions: Homo sapiens, THP-1, PMA-differentiated, 1 hr compound, Nigericin 6.7 uM 3 hrs, IL-6 in supernatant
Experimental: as §1, §2, §3, §4, §5, §6, §7, §8

| SMILES | IC50 (NLRP3 inflammasome) [µM] | IC50 (IL-6) [µM] |
| --- | --- | --- |
| CN1CCC[C@@H](N(C)c2nnc(-c3ccccc3O)c3ccn(C)c23)C1 [Compound 18] | 1 to 10 | 1 to 5 |
| CN1C[C@H](Nc2nnc(-c3ccc(C(F)(F)F)cc3)c3cc[nH]c23)CC(F)(F)C1 [Compound 19] | 0.1 to 0.5 | 5 to 10 |
| CN1CCC[C@@H](Nc2nnc(-c3ccc(C(F)(F)F)cc3)c3nc[nH]c23)C1 [Compound 20] | 0.5 to 1 | ≥ 10 |
| Cc1cc2c(-c3ccc(C(F)(F)F)cc3)nnc(N[C@@H]3CCCN(C)C3)c2[nH]1 [Compound 21] | < 0.01 | ≥ 10 |
| Cc1cc(-c2nnc(N[C@@H]3CCCN(C)C3)c3[nH]ccc23)ccc1C(F)(F)F [Compound 23] | 1 to 10 | 5 to 10 |
| CN1CCC[C@@H](N(C)c2nnc(-c3ccc(C(F)(F)F)cc3)c3cc[nH]c23)C1 [Compound 25] | 0.1 to 0.5 | ≥ 10 |
| CN1CCC[C@@H](Nc2nnc(-c3ccc(C(F)(F)F)cc3)c3ccn(C)c23)C1 [Compound 26] | 0.01 to 0.1 | 5 to 10 |
| CN1CCC[C@@H](N(C)c2nnc(-c3ccc(C(F)(F)F)cc3)c3ccn(C)c23)C1 [Compound 27, (R)—N,1-dimethyl-N-(1-methylpiperidin-3-yl)-4-(4-(trifluoromethyl)phenyl)-1H-pyrrolo[2,3-d]pyridazin-7-amine] | 1 to 10 | ≥ 10 |
| CN1CCC[C@@H](Nc2nnc(-c3ccc(C(F)(F)F)cc3)c3c2ncn3C)C1 [Compound 29] | 0.5 to 1 | ≥ 10 |
| CN1CCC[C@@H](Nc2nnc(-c3ccc(C(F)(F)F)cc3)c3ncn(C)c23)C1 [Compound 30] | 1 to 10 | ≥ 10 |
| CN1CCC[C@@H](Nc2nnc(-c3ccc(C(F)(F)F)cc3)c3cnn(C)c23)C1 [Compound 31] | 0.01 to 0.1 | ≥ 10 |
| CN1CCC[C@@H](Nc2nnc(-c3ccc(C(F)(F)F)cc3)c3c2cnn3C)C1 [Compound 32] | < 0.01 | ≥ 10 |
| CN1CCC[C@@H](Oc2nnc(-c3ccc(C(F)(F)F)cc3)c3cc[nH]c23)C1 [Compound 39] | 0.1 to 0.5 | 5 to 10 |
| CN1CCC[C@@H](Nc2nnc(-c3ccc(C(F)(F)F)cc3)c3ccoc23)C1 [Compound 53] | 0.01 to 0.1 | ≥ 10 |
| CN1CCC[C@@H](Nc2nnc(-c3ccc(C(F)(F)F)cc3)c3occc23)C1 [Compound 54] | 0.1 to 0.5 | 1 to 5 |
| CN1CCC[C@@H](Nc2nnc(-c3ccc(C(F)(F)F)cc3)c3c2OCC3)C1 [Compound 58] | 0.1 to 0.5 | ≥ 10 |
| CN1CCC[C@@H](Nc2nnc(-c3ccc(C(F)(F)F)cc3)c3c2CCO3)C1 [Compound 59] | ≥ 10 | ≥ 10 |
| CN1CCC[C@@H](Nc2nnc(-c3ccc(C(F)(F)F)cc3)c3ccsc23)C1 [Compound 61] | 0.01 to 0.1 | ≥ 10 |
| CN1CCC[C@@H](Nc2nnc(-c3ccc(C(F)(F)F)cc3)c3sccc23)C1 [Compound 62] | 0.01 to 0.1 | 1 to 5 |

| SMILES | IC50 (NLRP3 inflammasome) [µM] | IC50 (IL-6) [µM] |
| --- | --- | --- |
| CN1CCC[C@@H](Nc2nnc(-c3ccc(C(F)(F)F)cc3)c3cnsc23)C1 [Compound 63, (R)—N-(1-methylpiperidin-3-yl)-4-(4-(trifluoromethyl)phenyl)isothiazolo[4,5-d]pyridazin-7-amine] | 0.01 to 0.1 | 5 to 10 |
| CN1CCC[C@@H](Nc2nnc(-c3ccc(C(F)(F)F)cc3)c3sncc23)C1 [Compound 64] | 0.01 to 0.1 | 5 to 10 |
| CN1CCC[C@@H](Nc2nnc(-c3ccc(C(F)(F)F)cc3)c3c2CCC3)C1 [Compound 65] | < 0.01 | 5 to 10 |
| Cc1cc(-c2nnc(N[C@@H]3CCCN(C)C3)c3cc[nH]c23)ccc1C(F)(F)F [Compound 66] | ≥ 10 | ≥ 10 |
| CN1CCC[C@@H](N(C)c2nnc(-c3ccc(C(F)(F)F)cc3)c3c2ccn3C)C1 [Compound 71] | 1 to 10 | ≥ 10 |
| CN1CCC[C@@H](N(C)c2nnc(-c3ccc(C(F)(F)F)cc3)c3[nH]ccc23)C1 [Compound 72] | 1 to 10 | ≥ 10 |
| Cc1c[nH]c2c(N[C@@H]3CCCN(C)C3)nnc(-c3ccc(F)cc3)c12 [Compound 73] | 0.1 to 0.5 | ≥ 10 |
| Cc1c[nH]c2c(-c3ccc(F)cc3)nnc(N[C@@H]3CCCN(C)C3)c12 [Compound 74] | ≥ 10 | ≥ 10 |
| Cc1cc2c(N[C@@H]3CCCN(C)C3)nnc(-c3ccc(C(F)(F)F)cc3)c2[nH]1 [Compound 75] | 1 to 10 | ≥ 10 |
| CCN1CCC[C@@H](Nc2nnc(-c3ccc(C(F)(F)F)cc3)c3ccn(C)c23)C1 [Compound 76] | < 0.01 | ≤ 1 |
| CC(C)N1CCC[C@@H](Nc2nnc(-c3ccc(C(F)(F)F)cc3)c3ccn(C)c23)C1 [Compound 77] | 0.5 to 1 | ≤ 1 |
| CN1CCC[C@@H](Nc2nnc(-c3ccc(F)cc3O)c3ccn(C)c23)C1 [Compound 78] | < 0.01 | 1 to 5 |
| CN1CCC[C@@H](Nc2nnc(-c3ccc(C#N)cc3)c3ccn(C)c23)C1 [Compound 79] | 0.1 to 0.5 | ≥ 10 |
| CN1CCC[C@@H](Nc2nnc(-c3ccc(Cl)cc3)c3ccn(C)c23)C1 [Compound 80] | < 0.01 | ≥ 10 |
| CN1CCC[C@@H](N(C)c2nnc(-c3ccc(F)cc3O)c3ccn(C)c23)C1 [Compound 81] | 0.1 to 0.5 | 1 to 5 |
| CN1CCC[C@@H](N(C)c2nnc(-c3ccc(Cl)cc3)c3ccn(C)c23)C1 [Compound 82] | 1 to 10 | 1 to 5 |
| CN1CCCC(Cc2nnc(-c3ccc(C(F)(F)F)cc3)c3cc[nH]c23)C1 (stereo not shown) [Compound 83] | 0.01 to 0.1 | 1 to 5 |
| CN1CCC[C@@H](N(C)c2nnc(-c3ccc(C#N)cc3)c3ccn(C)c23)C1 [Compound 84] | ≥ 10 | ≥ 10 |
| CN1CCC[C@@H](Oc2nnc(-c3ccc(C(F)(F)F)cc3)c3ccn(C)c23)C1 [Compound 85] | 0.1 to 0.5 | 5 to 10 |

| SMILES | IC50 (NLRP3 inflammasome) [µM] | IC50 (IL-6) [µM] |
| --- | --- | --- |
| CN1CCC[C@@H](Oc2nnc(-c3ccc(F)cc3O)c3ccsc23)C1 [Compound 86] | 0.1 to 0.5 | ≥ 10 |
| CN1CCC[C@@H](Oc2nnc(-c3ccc(C(F)(F)F)cc3)c3ccsc23)C1 [Compound 87] | 0.1 to 0.5 | ≥ 10 |
| CN1CCC[C@@H](Oc2nnc(-c3ccc(C(F)(F)F)cc3)c3ccoc23)C1 [Compound 88] | 1 to 10 | ≥ 10 |
| CN1CCC[C@@H](Oc2nnc(-c3ccc(F)cc3O)c3ccn(C)c23)C1 [Compound 89] | 0.1 to 0.5 | ≥ 10 |
| CN1CCC[C@@H](Oc2nnc(-c3ccc(F)cc3O)c3cc[nH]c23)C1 [Compound 90] | 0.1 to 0.5 | ≥ 10 |
| CN1CCC[C@@H](Oc2nnc(-c3ccc(F)cc3O)c3ccoc23)C1 [Compound 91] | 0.1 to 0.5 | ≥ 10 |
| C[N+]1(C)CCC[C@@H](Nc2nnc(-c3ccc(C(F)(F)F)cc3)c3nc[nH]c23)C1 [Compound 92] | ≥ 10 | ≥ 10 |
| CN1CCC[C@@H](N(C)c2nnc(-c3ccc(C(F)(F)F)cc3)c3ccoc23)C1 [Compound 93] | 1 to 10 | ≥ 10 |
| CN1CCC[C@@H](N(C)c2nnc(-c3ccc(C(F)(F)F)cc3)c3ccsc23)C1 [Compound 95] | 0.5 to 1 | ≥ 10 |
| CN1CCC[C@@H](N(C)c2nnc(-c3ccc(F)cc3O)c3cc[nH]c23)C1 [Compound 96] | 0.01 to 0.1 | ≥ 10 |
| Cc1cn(C)c2c(N[C@@H]3CCCN(C)C3)nnc(-c3ccc(C(F)(F)F)cc3)c12 [Compound 97] | 0.1 to 0.5 | ≥ 10 |
| CN1CCC[C@@H](N(C)c2nnc(-c3ccc(F)cc3O)c3ccsc23)C1 [Compound 98] | 0.1 to 0.5 | ≥ 10 |
| CC(C)N1CCC[C@@H](Nc2nnc(-c3ncc(C#N)cc3O)c3ccn(C)c23)C1 [Compound 99] | < 0.01 | 5 to 10 |
| CN1CCC[C@@H](Nc2nnc(-c3ccc(C#N)cc3O)c3ccn(C)c23)C1 [Compound 100] | 0.01 to 0.1 | 5 to 10 |
| Cc1cc2c(-c3ccc(C(F)(F)F)cc3)nnc(N[C@@H]3CCCN(C)C3)c2n1C [Compound 101] | 0.01 to 0.1 | 5 to 10 |
| CN1CCC[C@@H](N(C)c2nnc(-c3ccc(C#N)cc3O)c3ccn(C)c23)C1 [Compound 102] | 0.5 to 1 | ≥ 10 |
| CCN1CCC[C@@H](Nc2nnc(-c3ccc(C#N)cc3O)c3ccn(C)c23)C1 [Compound 103] | < 0.01 | 5 to 10 |
| CN1CCC[C@@H](Nc2nnc(-c3ccc(C#N)cc3O)c3c2cnn3C)C1 [Compound 104] | 0.01 to 0.1 | ≥ 10 |
